For 21 molecules, IC50 results are on record in patent publication US20230339939A1 (Bayer Aktiengesellschaft, priority 2020, published 2023).

Read-outs that look alike come from different tables or passages of the source. Bounds are passed on as bounds.

One test deals with CSNK1D (Homo sapiens (Human), UniProt P48730). The test can be described thus: CSNK1D Assay (ADP-Glo, 1 μM ATP). It is filed as biochemical. The settings on record: median, read-out: CSNK1D IC50 [mol/l] (median). The essentials:
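Enzyme is N-terminal GST-tagged full-length human CSNK1D from baculovirus-infected insect cells (typically about 0.5 ng/μL), with a biotinylated peptide substrate and 1 μM ATP. Compound pre-incubated 15 min at 22° C in HEPES pH 7.5 buffer; ADP formed is read by ADP-Glo luminescence.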
A general note: ADP-Glo turns the ADP formed in a reaction into a luminescent signal.

In test [1] the target is wild-type Epidermal Growth Factor Receptor (EGFR) (Homo sapiens (Human), UniProt P00533). The test is described as follows: WT-EGFR Kinase Assay (TR-FRET, 2 mM ATP). It is filed as biochemical. The essentials: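 GST-fused human EGFR fragment (R669-A1210) from Sf9 cells, typically 7.6 pg/μL, pre-incubated with compound 15 min at 22° C in Hepes pH 7.0 buffer with MgCl2, DTT and vanadate; biotinylated peptide substrate. After EDTA stop, phosphopeptide detected by TR-FRET (anti-phosphotyrosine Tb-cryptate/streptavidin-XL665), 665/620 nm emission ratio.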
Chain of wild-type Epidermal Growth Factor Receptor (EGFR) (P00533 669-1210): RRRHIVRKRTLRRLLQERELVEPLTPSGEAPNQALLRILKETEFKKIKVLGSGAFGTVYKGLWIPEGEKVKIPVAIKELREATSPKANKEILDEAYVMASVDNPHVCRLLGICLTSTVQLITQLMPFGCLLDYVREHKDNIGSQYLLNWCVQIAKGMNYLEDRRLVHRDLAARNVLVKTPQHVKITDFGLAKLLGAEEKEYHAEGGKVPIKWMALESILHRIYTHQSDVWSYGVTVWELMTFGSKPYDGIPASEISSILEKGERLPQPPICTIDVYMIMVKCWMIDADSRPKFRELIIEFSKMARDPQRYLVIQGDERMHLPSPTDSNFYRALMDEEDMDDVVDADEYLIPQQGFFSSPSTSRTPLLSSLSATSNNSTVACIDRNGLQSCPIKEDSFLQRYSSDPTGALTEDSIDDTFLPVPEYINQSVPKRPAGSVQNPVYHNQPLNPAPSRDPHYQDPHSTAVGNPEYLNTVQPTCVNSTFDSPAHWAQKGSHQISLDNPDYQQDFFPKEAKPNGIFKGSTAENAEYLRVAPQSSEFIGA

The mark [2] stands for this setting: read-out: EGFR Wildtype 2 mM ATP IC50 [mol/l] (median).

Chain of CSNK1D (P48730 whole entry): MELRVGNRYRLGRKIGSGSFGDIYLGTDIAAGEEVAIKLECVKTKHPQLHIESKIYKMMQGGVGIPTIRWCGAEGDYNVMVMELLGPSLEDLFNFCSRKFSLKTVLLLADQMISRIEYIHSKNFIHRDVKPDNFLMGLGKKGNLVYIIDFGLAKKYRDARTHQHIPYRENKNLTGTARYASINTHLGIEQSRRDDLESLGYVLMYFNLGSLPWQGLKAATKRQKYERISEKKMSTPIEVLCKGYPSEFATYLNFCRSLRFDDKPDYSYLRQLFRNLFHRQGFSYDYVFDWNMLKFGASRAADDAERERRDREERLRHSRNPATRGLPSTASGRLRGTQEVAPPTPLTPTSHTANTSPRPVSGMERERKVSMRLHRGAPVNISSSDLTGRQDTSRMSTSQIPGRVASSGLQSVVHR

Take `O=C(Cc1ccc(F)cc1)Nc1cc(-c2[nH]c3cc(F)cnc3c2-c2ccccn2)ccn1` [Example 9, 2-(4-fluorophenyl)-N-{4-[6-fluoro-3-(pyridin-2-yl)-1H-pyrrolo[3,2-b]pyridin-2-yl]pyridin-2-yl}acetamide]: the results for the IC50 (on CSNK1D; in test [1] (setting [2])) were 4.76 nM and over 20000 nM, respectively.
On the same counts, the results for `O=C(Cc1ccc(F)cc1)Nc1cc(-c2[nH]c3cc(F)cnc3c2-c2ccccc2)ccn1` [Example 10, 2-(4-fluorophenyl)-N-[4-(6-fluoro-3-phenyl-1H-pyrrolo[3,2-b]pyridin-2-yl)pyridin-2-yl]acetamide] are 4.27 nM and over 20000 nM.
As for `O=C(Cc1ccc(F)cc1)Nc1cc(-c2[nH]c3cccnc3c2-c2ccccc2)ccn1` [Example 14, 2-(4-fluorophenyl)-N-[4-(3-phenyl-1H-pyrrolo[3,2-b]pyridin-2-yl)pyridin-2-yl]acetamide], the figures for the IC50 (on CSNK1D; in test [1] (median); in test [1] (setting [2])) were 2.64 nM, over 20000 nM and 19100 nM, respectively.
Consider `O=C(Cc1ccc(F)cc1)Nc1cc(-c2[nH]c3cccnc3c2-c2cccc(F)c2)ccn1` [Example 15, 2-(4-fluorophenyl)-N-{4-[3-(3-fluorophenyl)-1H-pyrrolo[3,2-b]pyridin-2-yl]pyridin-2-yl}acetamide], for which the IC50 is 3.4 nM on CSNK1D and over 20000 nM in test [1] (setting [2]).
For `O=C(Cc1ccc(F)cc1)Nc1cc(-c2[nH]c3cccnc3c2-c2ncccn2)ccn1` [Example 16, 2-(4-fluorophenyl)-N-{4-[3-(pyrimidin-2-yl)-1H-pyrrolo[3,2-b]pyridin-2-yl]pyridin-2-yl}acetamide], the results for the IC50 (at CSNK1D; in test [1] (median); in test [1] (setting [2])) were 9.02 nM, 17500 nM and over 20000 nM, respectively.
Take `O=C(Cc1ccc(F)cc1)Nc1cc(-c2[nH]c3cccnc3c2-c2ccc(Cl)s2)ccn1` [Example 17, N-{4-[3-(5-chlorothiophen-2-yl)-1H-pyrrolo[3,2-b]pyridin-2-yl]pyridin-2-yl}-2-(4-fluorophenyl)acetamide]: the IC50 at CSNK1D is 3.15 nM; in test [1] (setting [2]), over 20000 nM.
On the same counts, the results for `O=C(Cc1ccc(F)cc1)Nc1cc(-c2[nH]c3ccnnc3c2-c2ccccn2)ccn1` [Example 21, 2-(4-fluorophenyl)-N-{4-[7-(pyridin-2-yl)-5H-pyrrolo[3,2-c]pyridazin-6-yl]pyridin-2-yl}acetamide] are 3.96 nM and over 20000 nM.
For `O=C(Cc1ccc(F)cc1)Nc1cc(-c2[nH]c3c(Cl)ccnc3c2-c2ccccn2)ccn1` [Example 22, N-{4-[7-chloro-3-(pyridin-2-yl)-1H-pyrrolo[3,2-b]pyridin-2-yl]pyridin-2-yl}-2-(4-fluorophenyl)acetamide] the same measures were 5.84 nM and over 20000 nM.
In the case of `O=C(Cc1ccc(F)cc1)Nc1cc(-c2[nH]c3ccc(Cl)nc3c2-c2ccccn2)ccn1` [Example 23, N-{4-[5-chloro-3-(pyridin-2-yl)-1H-pyrrolo[3,2-b]pyridin-2-yl]pyridin-2-yl}-2-(4-fluorophenyl)acetamide], the IC50 at CSNK1D is 3.18 nM; in test [1] (setting [2]), over 20000 nM.
For `Cc1cc2[nH]c(-c3ccnc(NC(=O)Cc4ccc(F)cc4)c3)c(-c3ccccn3)c2nc1F` [Example 27, N-{4-[5-fluoro-6-methyl-3-(pyridin-2-yl)-1H-pyrrolo[3,2-b]pyridin-2-yl]pyridin-2-yl}-2-(4-fluorophenyl)acetamide] the same measures were 5.11 nM and over 20000 nM.
For `COc1ccnc2c(-c3ccccn3)c(-c3ccnc(NC(=O)Cc4ccc(F)cc4)c3)[nH]c12` [Example 31, 2-(4-fluorophenyl)-N-{4-[7-methoxy-3-(pyridin-2-yl)-1H-pyrrolo[3,2-b]pyridin-2-yl]pyridin-2-yl}acetamide] the same measures were 4.4 nM and over 20000 nM.
On the same counts, the results for `COc1ccc2[nH]c(-c3ccnc(NC(=O)Cc4ccc(F)cc4)c3)c(-c3ccccn3)c2n1` [Example 32, 2-(4-fluorophenyl)-N-{4-[5-methoxy-3-(pyridin-2-yl)-1H-pyrrolo[3,2-b]pyridin-2-yl]pyridin-2-yl}acetamide] are 7.52 nM and over 20000 nM.
As to `C=Cc1ccnc2c(-c3ccccn3)c(-c3ccnc(NC(=O)Cc4ccc(F)cc4)c3)[nH]c12` [Example 33, N-{4-[7-ethenyl-3-(pyridin-2-yl)-1H-pyrrolo[3,2-b]pyridin-2-yl]pyridin-2-yl}-2-(4-fluorophenyl)acetamide], the IC50 on CSNK1D came to 9.16 nM; in test [1] (setting [2]), 15100 nM.
Regarding `CCc1ccnc2c(-c3ccccn3)c(-c3ccnc(NC(=O)Cc4ccc(F)cc4)c3)[nH]c12` [Example 34, N-{4-[7-ethyl-3-(pyridin-2-yl)-1H-pyrrolo[3,2-b]pyridin-2-yl]pyridin-2-yl}-2-(4-fluorophenyl)acetamide], the IC50 at CSNK1D was 3.84 nM; in test [1] (setting [2]), over 20000 nM.
As for `O=C(Cc1ccc(F)cc1)Nc1cc(-c2[nH]c3c(C4CC4)ccnc3c2-c2ccccn2)ccn1` [Example 35, N-{4-[7-cyclopropyl-3-(pyridin-2-yl)-1H-pyrrolo[3,2-b]pyridin-2-yl]pyridin-2-yl}-2-(4-fluorophenyl)acetamide], the IC50 on CSNK1D is 4.19 nM; in test [1] (setting [2]), over 20000 nM.
On the same counts, the results for `COCCc1ccnc2c(-c3ccccn3)c(-c3ccnc(NC(=O)Cc4ccc(F)cc4)c3)[nH]c12` [Example 36, 2-(4-fluorophenyl)-N-{4-[7-(2-methoxyethyl)-3-(pyridin-2-yl)-1H-pyrrolo[3,2-b]pyridin-2-yl]pyridin-2-yl}acetamide] are 14.8 nM and over 20000 nM.
On the same counts, the results for `CN1CCN(c2ccnc3c(-c4ccccn4)c(-c4ccnc(NC(=O)Cc5ccc(F)cc5)c4)[nH]c23)CC1` [Example 38, 2-(4-fluorophenyl)-N-{4-[7-(4-methylpiperazin-1-yl)-3-(pyridin-2-yl)-1H-pyrrolo[3,2-b]pyridin-2-yl]pyridin-2-yl}acetamide] are 5.59 nM and over 20000 nM.
On the same counts, the results for `CN1CCC(N(C)c2ccnc3c(-c4ccccn4)c(-c4ccnc(NC(=O)Cc5ccc(F)cc5)c4)[nH]c23)CC1` [Example 39, 2-(4-fluorophenyl)-N-(4-{7-[methyl(1-methylpiperidin-4-yl)amino]-3-(pyridin-2-yl)-1H-pyrrolo[3,2-b]pyridin-2-yl}pyridin-2-yl)acetamide] are 13.6 nM and 1090 nM.
As for `O=C(Cc1ccc(F)cc1)Nc1cc(-c2[nH]c3c(N4CCCC4=O)ccnc3c2-c2ccccn2)ccn1` [Example 40, 2-(4-fluorophenyl)-N-{4-[7-(2-oxopyrrolidin-1-yl)-3-(pyridin-2-yl)-1H-pyrrolo[3,2-b]pyridin-2-yl]pyridin-2-yl}acetamide], the IC50 on CSNK1D is 10.3 nM; in test [1] (setting [2]) it was over 20000 nM.
As for `Cc1cc(CC(=O)Nc2cc(-c3[nH]c4cccnc4c3-c3ccccn3)ccn2)ccc1F` [Example 41, 2-(4-fluoro-3-methylphenyl)-N-{4-[3-(pyridin-2-yl)-1H-pyrrolo[3,2-b]pyridin-2-yl]pyridin-2-yl}acetamide], the IC50 on CSNK1D is 12.1 nM; in test [1] (setting [2]), over 20000 nM.
With `O=C(Cc1ccc(Cl)cc1)Nc1cc(-c2[nH]c3cccnc3c2-c2ccccn2)ccn1` [Example 42, 2-(4-chlorophenyl)-N-{4-[3-(pyridin-2-yl)-1H-pyrrolo[3,2-b]pyridin-2-yl]pyridin-2-yl}acetamide], the IC50 is 3.33 nM at CSNK1D and over 20000 nM in test [1] (setting [2]).
